Measured values: PubChem BioAssay AID248 (DTP/NCI, 2004)
Values joined by “and” are separate entries in the source; they are usually repeats but may differ in a detail not shown here. Equal values may be shown once. Inconclusive results and toxic doses are left out.

Tested on: L1210 leukemia ip in BDF1 mice, survival T/C
Test: NCI In Vivo Anticancer Drug Screen. Data for tumor model L1210 Leukemia (intraperitoneal) in B6D2F1 (BDF1) mice
Settings: endpoint: mean survival time, higher = longer survival
Method in brief: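 Antitumor effect is assessed in tumor-bearing animals. Survival in the compound arm is compared with a vehicle-dosed control arm and expressed as their quotient.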

[1] = dose: 100.0 mg/kg/injection, schedule: Q04DX003 (ip), vehicle: saline with Tween-80
[2] = dose: 200.0 mg/kg/injection, schedule: Q04DX003 (ip), vehicle: saline with Tween-80
[3] = dose: 100.0 mg/kg/injection, schedule: Q01DX009 (ip), vehicle: Klucel (hydroxypropylcellulose) (HPC)
[4] = dose: 200.0 mg/kg/injection, schedule: Q01DX009 (ip), vehicle: Klucel (hydroxypropylcellulose) (HPC)
[5] = dose: 400.0 mg/kg/injection, schedule: Q01DX009 (ip), vehicle: Klucel (hydroxypropylcellulose) (HPC)

For `CN=C(N)Nc1ccc(NC(=O)Nc2ccc(NC(=O)Nc3ccc(NC(N)=NC)cc3)cc2)cc1`, the T/C (dose: 3.75 mg/kg/injection, schedule: Q01DX Z (ip), vehicle: carboxymethylcellulose (CMC)) was 100 % of control, the T/C (dose: 7.5 mg/kg/injection, schedule: Q01DX Z (ip), vehicle: carboxymethylcellulose (CMC)) was 110 % of control and the T/C (dose: 30.0 mg/kg/injection, schedule: Q01DX Z (ip), vehicle: carboxymethylcellulose (CMC)) was 170 % of control. For the same compound, the T/C (dose: 31.0 mg/kg/injection, schedule: Q01DX Z (oral), vehicle: carboxymethylcellulose (CMC)) was 100 % of control, the T/C (dose: 62.0 mg/kg/injection, schedule: Q01DX Z (oral), vehicle: carboxymethylcellulose (CMC)) was 110 % of control and the T/C (dose: 125.0 mg/kg/injection, schedule: Q01DX Z (oral), vehicle: carboxymethylcellulose (CMC)) was 95 % of control. The T/C (dose: 250.0 mg/kg/injection, schedule: Q01DX Z (oral), vehicle: carboxymethylcellulose (CMC)) was 101 % of control.
`CCOCCO` was tested, and the T/C (dose: 5.0 mg/kg/injection, schedule: Q01DX009 (ip), vehicle: saline) was 97 % of control, the T/C (dose: 10.0 mg/kg/injection, schedule: Q01DX009 (ip), vehicle: saline) was 90 % of control and the T/C (dose: 20.0 mg/kg/injection, schedule: Q01DX009 (ip), vehicle: saline) was 98 % of control.
With `C(COCCOCC1CO1)OCCOCC1CO1` (configuration not stated) the T/C (dose: 62.0 mg/kg/injection, schedule: Q01DX Z (ip), vehicle: saline) was 110 % of control, the T/C (dose: 125.0 mg/kg/injection, schedule: Q01DX Z (ip), vehicle: saline) was 117 % of control and the T/C (dose: 250.0 mg/kg/injection, schedule: Q01DX Z (ip), vehicle: saline) was 116 % of control. For the same compound, the T/C (dose: 500.0 mg/kg/injection, schedule: Q01DX Z (ip), vehicle: saline) was 108 % of control.
In the case of `COc1cc(C(=O)N(C)C2CCCCC2)cc(OC)c1OC`, the T/C [1] is reported as 98 % of control, the T/C [2] is reported as 98 % of control and the T/C (dose: 400.0 mg/kg/injection, schedule: Q04DX003 (ip), vehicle: saline with Tween-80) is reported as 102 % of control.
In the case of `COC(=O)CCC(C)C1CCC2C3C(O)CC4CC(OC(C)=O)CCC4(C)C3CC(O)C12C` (configuration not stated), the T/C (dose: 50.0 mg/kg/injection, schedule: Q01DX009 (ip), vehicle: carboxymethylcellulose (CMC)) is reported as 102 % of control and 103 % of control, the T/C (dose: 50.0 mg/kg/injection, schedule: Q04DX003 (ip), vehicle: carboxymethylcellulose (CMC)) is reported as 95 % of control and the T/C (dose: 100.0 mg/kg/injection, schedule: Q01DX009 (ip), vehicle: carboxymethylcellulose (CMC)) is reported as 95 % of control and 98 % of control. For the same compound, the T/C (dose: 100.0 mg/kg/injection, schedule: Q04DX002 (ip), vehicle: carboxymethylcellulose (CMC)) was 96 % of control and 101 % of control, the T/C (dose: 100.0 mg/kg/injection, schedule: Q04DX003 (ip), vehicle: carboxymethylcellulose (CMC)) was 95 % of control and the T/C (dose: 200.0 mg/kg/injection, schedule: Q01DX009 (ip), vehicle: carboxymethylcellulose (CMC)) was 88 % of control and 92 % of control. For the same compound, the T/C (dose: 200.0 mg/kg/injection, schedule: Q04DX002 (ip), vehicle: carboxymethylcellulose (CMC)) was 96 % of control and 91 % of control, the T/C (dose: 200.0 mg/kg/injection, schedule: Q04DX003 (ip), vehicle: carboxymethylcellulose (CMC)) was 88 % of control and the T/C (dose: 400.0 mg/kg/injection, schedule: Q04DX002 (ip), vehicle: carboxymethylcellulose (CMC)) was 86 % of control and 91 % of control.
For `Cc1cc(C)c(S(=O)(=O)Nc2ccccc2F)c(C)c1`, the T/C [3] was 98 % of control, the T/C [4] was 110 % of control and the T/C [5] was 93 % of control.
`O=C1c2ccccc2-c2c(Br)c3ccccc3c(=O)n21` was tested, and the T/C (dose: 50.0 mg/kg/injection, schedule: Q01DX001 (ip), vehicle: carboxymethylcellulose (CMC)) was 91 % of control, the T/C (dose: 100.0 mg/kg/injection, schedule: Q01DX001 (ip), vehicle: carboxymethylcellulose (CMC)) was 89 % of control and the T/C (dose: 200.0 mg/kg/injection, schedule: Q01DX001 (ip), vehicle: carboxymethylcellulose (CMC)) was 91 % of control. The T/C (dose: 400.0 mg/kg/injection, schedule: Q01DX001 (ip), vehicle: carboxymethylcellulose (CMC)) was 94 % of control.
With `O=C(Nc1ccc(Cl)c(Cl)c1)N(CCO)Cc1ccccc1` the T/C [3] was 90 % of control, the T/C [4] was 92 % of control and the T/C [5] was 97 % of control.
With `CC(C)CCOc1ccc(N)c([N+](=O)[O-])c1` the T/C (dose: 6.25 mg/kg/injection, schedule: Q01DX009 (ip), vehicle: saline with Tween-80) was 105 % of control, the T/C (dose: 12.5 mg/kg/injection, schedule: Q01DX009 (ip), vehicle: saline with Tween-80) was 100 % of control and the T/C (dose: 25.0 mg/kg/injection, schedule: Q01DX009 (ip), vehicle: saline with Tween-80) was 103 % of control. For the same compound, the T/C (dose: 50.0 mg/kg/injection, schedule: Q01DX009 (ip), vehicle: saline with Tween-80) was 94 % of control, the T/C [1] was 97 % of control and the T/C [2] was 100 % of control.
